Where only a bound is given, the exact number is not on record here.

We go through 21 compounds from patent publication US8735414B2 (priority 2009, dated 2014).

This assay has as its system bicistronic HCV replicon (replicon RNA, GenBank Accession No. AJ242654). Put plainly: HCV Replicon Assay. In kind it is cell-based. The note with it: Hepatitis C virus, 72 h, read-out: Replicon IC50.
Regarding `[2H]C([2H])(C)c1cc2c(cc1F)c(C#N)c(-c1ccc(S(=O)(=O)N[C@@H](C)C(F)(F)F)cn1)n2-c1ncccn1` [compound 1078, 6-{3-cyano-6-[(1,1-dideuterium)ethyl]-5-fluoro-1-(pyrimidin-2-yl)-1H-indol-2-yl}-N-[(2S)-1,1,1-trifluoropropan-2-yl]pyridine-3-sulfonamide], the IC50 is < 500 nM.

In the case of `C[C@H](NS(=O)(=O)c1ccc(-c2c(C(N)=O)c3cc(F)ccc3n2-c2ccccn2)nc1)C(F)(F)F` [compound 748, 5-fluoro-1-(pyridin-2-yl)-2-(5-{[(2S)-1,1,1-trifluoropropan-2-yl]sulfamoyl}pyridin-2-yl)-1H-indole-3-carboxamide], the IC50 was < 500 nM.

On to `CC(C)n1c(-c2ncc(S(=O)(=O)NC(CF)CF)cn2)c(C#N)c2ccc(Cl)cc21` [compound 257, 2-[6-chloro-3-cyano-1-(propan-2-yl)-1H-indol-2-yl]-N-(1,3-difluoropropan-2-yl)pyrimidine-5-sulfonamide], for which the IC50 lay within 500 to 2000 nM.

Regarding `Cc1ccnc(-n2c(-c3ccc(S(=O)(=O)N[C@@H](C)C(F)(F)F)cn3)c(C#N)c3cc(F)c(C)cc32)n1` [compound 873, 6-[3-cyano-5-fluoro-6-methyl-1-(4-methylpyrimidin-2-yl)-1H-indol-2-yl]-N-[(2S)-1,1,1-trifluoropropan-2-yl]pyridine-3-sulfonamide], the IC50 was < 500 nM.

For `CCc1cc2c(cc1F)c(C#N)c(-c1ccc(S(=O)(=O)N[C@@H](C)C(F)(F)F)cn1)n2-c1ccccc1F` [compound 1075, 6-[3-cyano-6-ethyl-5-fluoro-1-(2-fluorophenyl)-1H-indol-2-yl]-N-[(2S)-1,1,1-trifluoropropan-2-yl]pyridine-3-sulfonamide], the half-maximal inhibitory concentration (IC50) was < 500 nM.

As for `CSc1cc2c(C#N)c(-c3ccc(S(=O)(=O)N[C@@H](C)C(F)(F)F)cn3)n(C3CCC3)c2cc1OC(F)F` [compound 685, 6-[3-cyano-1-cyclobutyl-6-(difluoromethoxy)-5-(methylsulfanyl)-1H-indol-2-yl]-N-[(2S)-1,1,1-trifluoropropan-2-yl]pyridine-3-sulfonamide], the IC50 was in the range of 500 to 2000 nM.

As for `C[C@H](NS(=O)(=O)c1ccc(-c2c(C#N)c3cc(F)c(C4(C)OCCO4)cc3n2-c2ncccn2)nc1)C(F)(F)F` [compound 927, 6-[3-cyano-5-fluoro-6-(2-methyl-1,3-dioxolan-2-yl)-1-(pyrimidin-2-yl)-1H-indol-2-yl]-N-[(2S)-1,1,1-trifluoropropan-2-yl]pyridine-3-sulfonamide], the IC50 is < 500 nM.

In the case of `CNC(=O)c1c(-c2ccc(S(=O)(=O)N[C@@H](C)C(F)(F)F)cn2)n(C2CCCC2)c2cc(C)c(F)cc12` [compound 761, (S)-1-cyclopentyl-5-fluoro-N,6-dimethyl-2-(5-(N-(1,1,1-trifluoropropan-2-yl)sulfamoyl)pyridin-2-yl)-1H-indole-3-carboxamide], the IC50 is < 500 nM.

On to `COC(=O)c1c(-c2ccc(S(=O)(=O)N[C@@H](C)C(F)(F)F)cn2)n(C2CCC2)c2cc(C)c(F)cc12` [compound 771, methyl 1-cyclobutyl-5-fluoro-6-methyl-2-(5-{[(2S)-1,1,1-trifluoropropan-2-yl]sulfamoyl}pyridin-2-yl)-1H-indole-3-carboxylate], for which the IC50 was < 500 nM.

In the case of `Cc1ccc2c(C#N)c(-c3ccc(S(=O)(=O)N[C@@H](C)C(F)(F)F)cn3)n(-c3ccccc3)c2c1` [compound 440, 6-(3-cyano-6-methyl-1-phenyl-1H-indol-2-yl)-N-[(2S)-1,1,1-trifluoropropan-2-yl]pyridine-3-sulfonamide], the IC50 was < 500 nM.

For the compound `N#Cc1c(-c2ccc(S(=O)(=O)NC(CF)CF)cn2)n(CC2CC2)c2cc(CC(F)F)ccc12` [compound 616, 6-[3-cyano-1-(cyclopropylmethyl)-6-(2,2-difluoroethyl)-1H-indol-2-yl]-N-(1,3-difluoropropan-2-yl)pyridine-3-sulfonamide], the concentration for half-maximal inhibition (IC50) is < 500 nM.

On to `COc1ccnc(-n2c(-c3ccc(S(=O)(=O)N[C@@H](C)C(F)(F)F)cn3)c(C#N)c3cc(F)c(C)cc32)c1` [compound 816, 6-[3-cyano-5-fluoro-1-(4-methoxypyridin-2-yl)-6-methyl-1H-indol-2-yl]-N-[(2S)-1,1,1-trifluoropropan-2-yl]pyridine-3-sulfonamide], for which the IC50 was < 500 nM.

In the case of `Cc1ccc2c(C#N)c(-c3ncc(S(=O)(=O)N[C@@H](C)C4CC4)cn3)n(C3CCC3)c2c1` [compound 202, 2-(3-cyano-1-cyclobutyl-6-methyl-1H-indol-2-yl)-N-[(1S)-1-cyclopropylethyl]pyrimidine-5-sulfonamide], the IC50 is < 500 nM.

Turning to `C[C@@H](NS(=O)(=O)c1ccc(-c2c(C#N)c3cc(F)c(OC(F)F)cc3n2-c2ccccn2)nc1)C(F)(F)F` [compound 670, 6-[3-cyano-6-(difluoromethoxy)-5-fluoro-1-(pyridin-2-yl)-1H-indol-2-yl]-N-[(2R)-1,1,1-trifluoropropan-2-yl]pyridine-3-sulfonamide], the IC50 is < 500 nM.

For `C[C@@H](NS(=O)(=O)c1ccc(-c2c(C#N)c3cc(Cl)ccc3n2C2CCCC2)nc1)C(F)(F)F` [compound 224, 6-(5-chloro-3-cyano-1-cyclopentyl-1H-indol-2-yl)-N-[(2R)-1,1,1-trifluoropropan-2-yl]pyridine-3-sulfonamide], the IC50 is < 500 nM.

Take `CCc1cc2c(cc1F)c(C#N)c(-c1ccc(NS(=O)(=O)C(C)(C)C)nc1)n2[C@@H](C)C1CC1` [compound 1082, N-(5-{3-cyano-1-[(1S)-1-cyclopropylethyl]-6-ethyl-5-fluoro-1H-indol-2-yl}pyridin-2-yl)-2-methylpropane-2-sulfonamide]: the half-maximal inhibitory concentration (IC50) was < 500 nM.

Turning to `N#Cc1c(-c2ccc(S(=O)(=O)NC(CF)CF)cn2)n(C2CCC2)c2ccc(C(F)F)cc12` [compound 378, 6-[3-cyano-1-cyclobutyl-5-(difluoromethyl)-1H-indol-2-yl]-N-(1,3-difluoropropan-2-yl)pyridine-3-sulfonamide], the IC50 was < 500 nM.

`N#Cc1c(-c2ccc(S(=O)(=O)NC3(C(F)(F)F)CC3)cn2)n(-c2ccccn2)c2cc(OC(F)F)ccc12` [compound 623, 6-[3-cyano-6-(difluoromethoxy)-1-(pyridin-2-yl)-1H-indol-2-yl]-N-[1-(trifluoromethyl)cyclopropyl]pyridine-3-sulfonamide]: the IC50 lay in the range of 500 to 2000 nM.

On to `CC(C)NS(=O)(=O)c1ccc(-c2c(C#N)c3ccc(OC(F)(F)F)cc3n2C2CCCC2)nc1` [compound 17, 6-[3-cyano-1-cyclopentyl-6-(trifluoromethoxy)-1H-indol-2-yl]-N-(propan-2-yl)pyridine-3-sulfonamide], for which the concentration for half-maximal inhibition (IC50) fell in the range of 500 to 2000 nM.

Turning to `COC(=O)c1c(-c2ccc(S(=O)(=O)NC(C)(C)C)cn2)n(C2CCCC2)c2cc(C)c(F)cc12` [compound 755, methyl 2-[5-(tert-butylsulfamoyl)pyridin-2-yl]-1-cyclopentyl-5-fluoro-6-methyl-1H-indole-3-carboxylate], the IC50 was < 500 nM.

As to `Cc1cc2c(cc1F)c(C#N)c(-c1ccc(S(=O)(=O)NC3CC3)cn1)n2C1CCC1` [compound 652, 6-(3-cyano-1-cyclobutyl-5-fluoro-6-methyl-1H-indol-2-yl)-N-cyclopropylpyridine-3-sulfonamide], the IC50 is < 500 nM.
